Data set [1] concerns RAW264.7. Put plainly: Anti inflammatory activity in LPS-induced mouse RAW264.7 cells assessed as inhibition of NO production at 5 uM preincubated with compound for 2 hrs followed by LPS stimulation and measured after 24 hrs by griess reagent based assay relative to control. The class given is functional. The following applies: time 26 hrs. (Griess reagent forms a coloured azo dye with nitrite.)

Data set [2] concerns RAW264.7. Put plainly: Anti inflammatory activity in LPS-induced mouse RAW264.7 cells assessed as inhibition of NO production preincubated with compound for 2 hrs followed by LPS stimulation and measured after 24 hrs by griess reagent based assay. Type of data set: functional, cell-based.
The nature of data set [3]: Cytotoxicity against mouse RAW264.7 cells assessed as cell viability at 40 uM measured after 24 hrs by MTT assay relative to control. The following applies: read-out: Activity. Type of data set: toxicity, cell-based. On the technique in general: Tetrazolium dyes change colour on reduction, which living cells bring about.
Data set [4] concerns RAW264.7. As to the kind of experiment: Anti inflammatory activity in LPS-induced mouse RAW264.7 cells assessed as inhibition of NO production at 2.5 uM preincubated with compound for 2 hrs followed by LPS stimulation and measured after 24 hrs by griess reagent based assay relative to control. Type of data set: functional. The following applies: time 26 hrs.

One may read the inhibition as the share of the control response that was lost under treatment. By IC50 is commonly meant the point on the concentration scale where inhibition reaches its midpoint.

For the compound `CON(C)C(=O)CCSSCCC(=O)O[C@@H]1CC[C@@]2(C)[C@@H](CC[C@@]3(C)[C@H]2[C@H](O)C[C@H]2/C(=C(\CCC=C(C)C)C(=O)OCc4ccccc4)[C@@H](OC(C)=O)C[C@@]23C)[C@@H]1C`, the inhibition at 5 µM with RAW264.7 [1] is 59.3%. The IC50 in the data set on RAW264.7 [2] came to 2.5 µM. Besides, in data set [3], the viability at 24 h, 40 µM is 90.2%. In addition, in the data set on RAW264.7 [4], the inhibition at 2.5 µM was 54.6%.

Turning to `CON(C)C(=O)c1ccccc1C(=O)O[C@@H]1CC[C@@]2(C)[C@@H](CC[C@@]3(C)[C@H]2[C@H](O)C[C@H]2/C(=C(\CCC=C(C)C)C(=O)OCc4ccccc4)[C@@H](OC(C)=O)C[C@@]23C)[C@@H]1C`, the inhibition at 5 µM in the data set on RAW264.7 [1] turned out to be 44.5%. Besides, the IC50 with RAW264.7 [2] came to 6.92 µM. The viability at 24 h, 40 µM in data set [3] stood at 100%. Further, the inhibition at 2.5 µM in the data set on RAW264.7 [4] is 24%.

For the compound `CC(=O)O[C@H]1C[C@@]2(C)[C@@H](C[C@@H](O)[C@H]3[C@@]4(C)CC[C@@H](OC(=O)c5ccccc5C(=O)N5CCOCC5)[C@@H](C)[C@@H]4CC[C@@]32C)/C1=C(\CCC=C(C)C)C(=O)OCc1ccccc1`, the inhibition at 5 µM in the data set with RAW264.7 [1] amounted to 44.5%. Further, the IC50 with RAW264.7 [2] is 7.61 µM. In data set [3], the viability at 24 h, 40 µM worked out at 102%. For the same compound, the inhibition at 2.5 µM in the data set on RAW264.7 [4] amounted to 28.4%.
